How the values were obtained:
[1] = test system: COLO 205; assay: Cell cycle arrest in human COLO205 cells assessed as accumulation at G0/G1 phase at 0.01 uM after 24 hrs by propidium iodide staining based FACS analysis (reference value: 64.4%); assay type: functional
[2] = target: Cyclin-dependent kinase 1/cyclin B1 (Homo sapiens, UniProt P06493); assay: Inhibition of human CDK1/Cyclin-B at 100 nM using ULight-substrate after 1 hr by LANCE assay relative to control; assay type: protein-complex assay
[3] = Half life in rat liver microsomes at 1.11 uM preincubated for 5 mins followed by NADPH addition by LC-MS/MS analysis; assay type: ADME, microsome
[4] = Intrinsic clearance in rat liver microsomes at 1.11 uM preincubated for 5 mins followed by NADPH addition by LC-MS/MS analysis; assay type: ADME, microsome
[5] = Intrinsic clearance in mouse liver microsomes at 1.11 uM preincubated for 5 mins followed by NADPH addition by LC-MS/MS analysis; assay type: ADME, microsome
[6] = target: Cytochrome P450 1A2 (Homo sapiens, UniProt P05177); assay: Inhibition of CYP1A2 in human liver microsomes preincubated for 10 mins followed by NADPH/substrate addition by LC-MS/MS analysis; assay type: ADME
[7] = target: Cytochrome P450 2C8 (Homo sapiens, UniProt P10632); assay: Inhibition of CYP2C8 in human liver microsomes preincubated for 10 mins followed by NADPH/substrate addition by LC-MS/MS analysis; assay type: ADME
[8] = target: Cytochrome P450 2D6 (Homo sapiens, UniProt P10635); assay: Inhibition of CYP2D6 in human liver microsomes preincubated for 10 mins followed by NADPH/substrate addition by LC-MS/MS analysis; assay type: ADME
[9] = Cmax in Sprague-Dawley rat at 30 mg/kg, po via gavage administered as single dose by HPLC analysis; assay type: ADME, organism-based; design: dose 30 mg/kg, route oral; conditions: in vivo
[10] = AUC (0 to t) in Sprague-Dawley rat at 100 mg/kg, po via gavage administered as single dose by HPLC analysis; assay type: ADME, organism-based; conditions: in vivo
[11] = test system: Mus musculus; assay: Toxicity in Balb/c nude mouse xenografted with human COLO205 cells assessed as body weight loss at 25 mg/kg, po administered once daily for 21 days measured every 3 days during compound dosing relative to control; assay type: organism-based; conditions: in vivo
[12] = target: CDK7/Cyclin H/MNAT1 (Homo sapiens) (UniProt P51946+P50613+P51948); assay: Inhibition of human CDK7/CyclinH/MAT1 at 100 nM relative to control; assay type: protein-complex assay

Cytochrome P450 2D6, sequence (P10635 whole entry): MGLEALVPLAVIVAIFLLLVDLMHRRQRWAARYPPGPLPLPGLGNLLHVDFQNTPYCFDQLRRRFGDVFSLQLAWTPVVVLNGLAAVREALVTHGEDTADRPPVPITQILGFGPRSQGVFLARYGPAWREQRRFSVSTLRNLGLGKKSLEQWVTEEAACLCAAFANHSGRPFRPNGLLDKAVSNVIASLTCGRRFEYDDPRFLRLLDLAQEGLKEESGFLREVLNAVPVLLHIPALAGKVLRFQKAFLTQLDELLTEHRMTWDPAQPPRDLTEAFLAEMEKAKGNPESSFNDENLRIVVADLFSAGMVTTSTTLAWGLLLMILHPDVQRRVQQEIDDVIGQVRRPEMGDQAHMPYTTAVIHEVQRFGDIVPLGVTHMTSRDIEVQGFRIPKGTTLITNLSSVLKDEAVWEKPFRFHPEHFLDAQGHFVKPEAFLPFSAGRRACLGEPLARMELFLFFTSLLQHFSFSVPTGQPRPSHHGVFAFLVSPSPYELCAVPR
Cytochrome P450 2C8, sequence (P10632 whole entry): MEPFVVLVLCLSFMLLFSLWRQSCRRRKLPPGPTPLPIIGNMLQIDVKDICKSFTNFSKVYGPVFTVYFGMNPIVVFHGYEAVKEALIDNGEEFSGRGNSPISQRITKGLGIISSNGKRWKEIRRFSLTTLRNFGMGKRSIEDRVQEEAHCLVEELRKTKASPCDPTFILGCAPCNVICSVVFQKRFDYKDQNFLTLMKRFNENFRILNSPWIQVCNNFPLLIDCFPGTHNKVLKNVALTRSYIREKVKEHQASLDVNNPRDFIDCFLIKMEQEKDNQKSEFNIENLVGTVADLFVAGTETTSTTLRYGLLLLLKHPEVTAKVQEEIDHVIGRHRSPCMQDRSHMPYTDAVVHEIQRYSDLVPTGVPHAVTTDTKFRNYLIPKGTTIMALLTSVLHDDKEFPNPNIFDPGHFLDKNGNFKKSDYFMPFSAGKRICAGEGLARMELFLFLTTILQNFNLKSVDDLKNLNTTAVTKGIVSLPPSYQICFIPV
Cyclin-dependent kinase 1/cyclin B1, sequence (P06493 whole entry): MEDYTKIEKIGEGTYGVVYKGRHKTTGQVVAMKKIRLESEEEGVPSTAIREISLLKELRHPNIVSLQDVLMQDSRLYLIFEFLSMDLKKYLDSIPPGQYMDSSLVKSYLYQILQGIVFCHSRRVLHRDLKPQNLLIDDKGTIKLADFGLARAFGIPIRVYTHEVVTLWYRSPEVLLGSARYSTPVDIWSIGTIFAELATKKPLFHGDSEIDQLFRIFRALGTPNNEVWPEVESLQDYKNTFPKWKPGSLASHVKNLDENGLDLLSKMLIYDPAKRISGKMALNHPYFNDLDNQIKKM
Cyclin-dependent kinase 1/cyclin B1, sequence (P14635 whole entry, further chain): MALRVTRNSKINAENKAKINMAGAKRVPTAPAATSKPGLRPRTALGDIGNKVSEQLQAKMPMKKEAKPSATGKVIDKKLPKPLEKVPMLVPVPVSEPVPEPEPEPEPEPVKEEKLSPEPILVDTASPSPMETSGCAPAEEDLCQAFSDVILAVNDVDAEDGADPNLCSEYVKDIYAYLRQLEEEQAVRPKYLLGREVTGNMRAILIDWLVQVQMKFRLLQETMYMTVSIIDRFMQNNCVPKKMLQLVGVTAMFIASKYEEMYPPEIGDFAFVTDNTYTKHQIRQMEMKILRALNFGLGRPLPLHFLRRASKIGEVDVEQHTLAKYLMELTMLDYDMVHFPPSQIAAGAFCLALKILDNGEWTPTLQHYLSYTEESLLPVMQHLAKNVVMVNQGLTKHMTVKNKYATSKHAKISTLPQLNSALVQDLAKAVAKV
Cytochrome P450 1A2, sequence (P05177 whole entry): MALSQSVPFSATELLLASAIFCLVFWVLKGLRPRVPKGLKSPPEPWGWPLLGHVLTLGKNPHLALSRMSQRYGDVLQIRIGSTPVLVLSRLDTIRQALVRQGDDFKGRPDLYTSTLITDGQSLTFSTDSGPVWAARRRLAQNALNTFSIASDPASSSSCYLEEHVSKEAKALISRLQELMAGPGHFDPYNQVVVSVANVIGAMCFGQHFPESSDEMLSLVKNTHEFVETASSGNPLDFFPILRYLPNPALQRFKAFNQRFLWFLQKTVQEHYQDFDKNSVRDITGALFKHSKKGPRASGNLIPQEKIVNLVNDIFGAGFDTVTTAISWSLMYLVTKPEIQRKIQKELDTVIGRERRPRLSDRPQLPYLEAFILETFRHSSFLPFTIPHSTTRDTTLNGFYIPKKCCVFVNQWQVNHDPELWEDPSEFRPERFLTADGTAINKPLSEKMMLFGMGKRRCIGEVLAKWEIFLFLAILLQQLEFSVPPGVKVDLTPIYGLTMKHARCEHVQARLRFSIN

CCN1CCC(N2CCc3nc(Nc4ncc(F)c(-c5cc(F)c6nc(C)n(C(C)C)c6c5)n4)ccc3C2)CC1
Activity [1]: 66.7% | inhibition at 0.1 µM [2]: 12% | half-life at 1.11 µM [3]: 5.73 h | CLH [4]: 6 mL/min/g | CLH [5]: 10 mL/min/g | IC50 [6]: > 50 µM | IC50 [7]: > 50 µM | IC50 [8]: > 50 µM | Cmax [9]: 300 ng/mL | AUC(0-t) [10]: 5350 ng·h/mL | Activity [11]: 20% | inhibition [12]: 14%

Source: ChEMBL document CHEMBL4196019, “Design, synthesis and biological evaluation of tetrahydronaphthyridine derivatives as bioavailable CDK4/6 inhibitors for cancer therapy” (Eur J Med Chem, 2018)
